Measurements reported in US11357777B2, “Use of sGC stimulators for the treatment of nonalcoholic steatohepatitis (NASH)” (Cyclerion Therapeutics, Inc., priority 2016, dated 2022).
“Also recorded” adds a separate entry of the source. Like-named read-outs stand apart in the source and are kept apart here.

Assays:
primary white adipocytes = settings: cited from earlier work
[1] = system: WT mice fed a high fat diet (HFD); settings: cited from earlier work
human brown adipocytes = settings: cited from earlier work
[2] = system: alpha-SMA (alpha-smooth muscle actin) mRNA expression; test: CCl4-induced changes in liver fibrosis marker in C57BL/6 mice; format: in vivo
Description: A pilot study using male C57BL/6 mice was carried out to explore the changes in liver fibrosis biomarker after one single injection of carbon tetrachloride (CCl4) given by intraperitoneal (IP) administration and the effect of several substances, including an sGC stimulator, in this model. Injection of CCl4 in mice results in elevation of alpha-SMA (alpha-smooth muscle actin) mRNA expression and this can be used as a biomarker of fibrosis in the liver. A reduction in the expression levels of this biomarker and reversal towards the normal levels, upon administration of an sGC stimulator, can be used to assess the potential utility of the compound in the treatment of liver fibrosis.
Mice used were 8 weeks old at receipt, healthy, and unused in other experimental procedures. Housing and care were as specified in the USDA Animal Welfare Act (9 CFR, Parts 1, and 3) and as described in the Guide for the Care and Use of Laboratory Animals from the National Research Council. Environmental conditions in housing rooms were set at the following ranges for acclimation and naive groups: temperature: 68±5° F. […], humidity: 50±:20%; light cycle: 12 hour light/12-hour dark; air changes: ten or more changes per hour with 100% HEPA filtered fresh air. Mice were given regular chow and water ad libitum and were not fasted overnight prior to compound administration.
CCl4 was dosed once to all animals, via intraperitoneal administration (IP) at a concentration of 15 μl (dissolved in 85 μl of corn or olive oil) and a dose volume of 100 μl per 30 g of mouse. Compound A was dosed to mice via oral administration (PO, by oral gavage), BID for 3 days at a concentration of 3 mg/mL (0.5% Methylcellulose) and a dose volume of […]. The single dose of CCl4 was administered two hours after the first dose of Compound A. The second dose of Compound A was administered 7 hours after the first dose. After three days of dosing, the animals were sacrificed and plasma and liver samples obtained for analysis.
Total RNA was extracted from isolated tissues by adding 1 ml Trizol and a stainless steel bead to each sample, and homogenized using a TissueLyser II at the highest speed (30 Hz) for 2 minutes at room temperature. After homogenization, 200 μl chloroform was added to each homogenized sample. The homogenate was vortexed briefly and left in an upright position at room temperature for 2-5 minutes until phase separation became visible by eye. Samples were centrifuged for 15 minutes at the highest speed (13,200 rpm) at 4° C. in an Eppendorf centrifuge.
After 15 minutes at the highest speed (13,200 rpm) centrifugation at 4° C., the supernatant of each sample (˜500 μl) was transferred into a new RNase-free tube. […]

[3] = Distribution of sGC stimulators in tissues, rats (liver and plasma by LC-MS/MS); format: in vivo; settings: Wistar, rat, 2 h post fifth dose, male rats, read-out: total Liver:Plasma ratio
Description: The purpose of this experiment was to determine compound concentrations in the plasma and tissues of animals dosed with sGC stimulators for 5 days Q.D.
In a first experiment, the sGC stimulator Compound B (described previously in Example 2) was dosed for 5 Days Q.D. to male Wister rats. Rats were divided into four study groups and dosed according to the below table:
The animals were dosed daily for five consecutive days according the table above. On each day of dosing, frozen aliquots of each dosing solution were thawed and the animals were weighed and dosed accordingly. On day 5, two hours post the fifth dose, blood was collected by orbital bleed. Blood samples were collected in EDTA tubes pre-loaded with 5 μL of 100 mM IBMX Plasma was be separated by centrifugation for 10 minutes at 4° C. and then stored at −80° C.
A Ketamine/Xylazine/pbs solution as a 5:1:4 ratio was administered I.P. at 1 ul per gram. Once the rat was fully anesthetized (as determined by checking its reflexes) and while the heart was still beating, a needle was inserted into the left ventricle. Approximately 20 mls of PBS/IBMX/heparin solution were then perfused. The right atrium was snipped, and perfusion continued for approximately 10 additional mls (30 mls total). At this point, the femoral artery was snipped and perfusion was continued until there was no longer blood (only clear fluid) collecting in the abdominal cavity. Several tissues, including liver, were isolated and weighed followed by snap freezing.
A second separate and similar experiment was carried out with Compound C. The structure of Compound C is depicted below. The preparation and characterization of this compound was described in patent application publication WO2014144100, published 18 Sep. 2014.
For this second experiment, rats were divided into four study groups and dosed according to the below table:
Samples were analyzed using liquid chromatography (LC) with tandem mass spectrometric detection (MS/MS) using positive electrospray ionization. The standard curve range was from 0.1 to 400 ng/mL. […]
In order to prepare the tissues for measurement, the naïve livers and the livers isolated after treatment were removed from the −80° C. freezer and placed on liquid nitrogen. The liver weight was recorded and then the tissue placed in a Geno grinding vial containing two 7/16″ steel beads. […] Approximately 200 mg of tissue from each sample was weighed and recorded. […] The samples were analyzed by LC-MS/MS.
Total liver and plasma concentrations were measured and liver concentrations were corrected for total liver weight. Liver: Plasma ratios were determined by dividing liver compound concentration by the plasma compound concentration. […]

OB/OB mice = settings: cited from earlier work
rat animal model of NASH = settings: cited from earlier work
[4] = 8 weeks at 300 mg/kg/24 hours in food and intraperitoneally at 1 mg/kg

## Nc1nc(-c2nn(Cc3ccccc3F)c3ncccc23)nc(N)c1N1CCOCC1 [BAY 41-8543]
Primary white adipocytes
  browning of primary white adipocytes: induces ‘browning’; also recorded: induces “browning”
[1]; [4]
  lipid uptake into BAT: enhances
  whole-body energy expenditure: increases
[1]; WT mice fed a HFD, obese phenotype, compared to mice fed regular chow
  triglyceride content in the liver: significant reduction
[1]; mouse, in vivo
  diabetic phenotype: improves
  diet-induced weight gain and liver steatosis: protects against
  weight loss in established obesity: induces weight loss
Human brown adipocytes
  differentiation of human brown adipocytes: enhances

## NC(=O)[C@@](O)(CNc1nc(-c2cc(-c3ccon3)n(Cc3ccccc3F)n2)ncc1F)C(F)(F)F [Compound A]
[2]; 30 mg/kg dose
  relative reduction of the increased alpha-SMA mRNA expression levels: about 66%
[2]; PO BID for 3 days, single IP CCl4
  reduction of alpha-SMA expression compared with pirfenidone-treated samples: significantly more pronounced
[2]; PO BID for 3 days, single IP CCl4, vs vehicle (0.5% methyl cellulose)
  reduction of elevated levels of alpha-SMA expression compared to vehicle: statistically significant reduction

## NC(=O)[C@](O)(CNc1nc(-c2cc(-c3ccon3)n(Cc3ccccc3F)n2)ncc1F)C(F)(F)F [Compound C]
[3]; 1 mg/kg PO Q.D. 5 days
  Kp: 6
[3]; 10 mg/kg PO Q.D. 5 days
  Kp: 8

## CC(=O)N[C@@H](CSN=O)C(=O)O [SNAP, S-Nitroso-N-acetylcysteine]
OB/OB mice
  effect on NASH: prevent and reverse NASH
Rat animal model of NASH
  onset of NASH: prevent the onset of NASH

## Cc1ccc(=O)n(-c2ccccc2)c1 [pirfenidone, reference compound]
[2]; 400 mg/kg dose
  relative reduction of the increased alpha-SMA mRNA expression levels: about 20%
